According to patent publication US6610333B1, “Feed supplement for arthropods” (Universita Degli Studi di Milano, priority 1998, dated 2003):

Experiments:
Bombyx mori larvae = experiment: Rearing of Bombyx mori larvae on artificial diet supplemented with ester; type: in vivo; settings: 130 mg per 1 kg of diet; for Percent of mortality: first three larval instars
[1] = tested on: membrane vesicles purified from the midgut tissue of B. mori larvae; experiment: Uptake of radiolabeled leucine into membrane vesicles from B. mori larval midgut; type: biochemical, Bombyx mori; settings: 0.2 mM test substance, 0.1 mM L-leucine, pH 10.8, 7 seconds incubation; None (control) 450 ± 20
Protocol: The effect of different esters and aminoesters was tested in vitro by measuring the uptake of radiolabeled leucine into membrane vesicles purified from the midgut tissue of B. mori larvae.
Uptakes were measured by incubating 10 μl of membrane vesicles and 40 μl of a isosmotic mixture buffered at pH 10.8 and containing 0.1 mM L-leucine, 30 μCi/ml of L-[3H]-leucine as a tracer and 0.2 mM of the substances indicated. Incubations were stopped after 7 seconds by 75-fold dilution in an ice-cold isotonic saline and filtration through cellulose filters (0.2 μm mesh). Filters were then counted for radioactivity in a scintillation counter and data were expressed per mg of membrane proteins. Vesicles were prepared by calcium precipitation and differential centrifugation from Bombyx mori larval midgut according to standard biochemical protocols.

COC(=O)[C@@H](N)CC(C)C [Leucine methyl ester, L-leucine methyl ester]
Weight of cocoon shell (Bombyx mori larvae; Polyhybrid (28 × 15) × (10 × 14), control 0.32 ± 0.02): 0.46 ± 0.03 g
Weight of cocoon shell (Bombyx mori larvae; Race BG35, control 0.25 ± 0.02): 0.31 ± 0.01 g
Percent of mortality (Bombyx mori larvae; Polyhybrid (28 × 15) × (10 × 14), control 19): 0%
Percent of mortality (Bombyx mori larvae; Race 21 Molucelli, control 30): 20%
Leucine uptake [1]: 4500 ± 150 pmol/7s/mg membrane protein

COC(=O)[C@@H](N)CCSC [Methionine methyl ester, L-methionine methyl ester]
Leucine uptake [1]: 4000 ± 180 pmol/7s/mg membrane protein

CCC(C)CC(=O)OC (stereo not shown) [3-methylvaleric methyl ester]
Leucine uptake [1]: 800 ± 30 pmol/7s/mg membrane protein

COC(=O)CCC(C)C [4-methylvaleric methyl ester]
Leucine uptake [1]: 2600 ± 80 pmol/7s/mg membrane protein

CCCC[C@H](N)C(=O)OC [Norleucine methyl ester]
Leucine uptake [1]: 3800 ± 100 pmol/7s/mg membrane protein

CCOC(=O)[C@@H](N)CC(C)C [Leucine ethyl ester]
Leucine uptake [1]: 2200 ± 75 pmol/7s/mg membrane protein
